Test results: US20240391862A1, “(1,4,5-TRISUBSTITUTED-1H-PYRAZOL-3-YL)OXY-2-ALKOXY ALKYL ACIDS AND THEIR DERIVATIVES, THEIR SALTS AND THEIR USE AS HERBICIDAL AGENTS” (Bayer AKtiengesellschaft, priority 2021, published 2024)

Tests used:
ABUTH = assay: Post-emergence herbicidal effect, greenhouse pot test; format: in vivo, Abutilon theophrasti; details: visual rating about 3 weeks after treatment
Excerpt: (§1) • ALOMY: Alopecurus myosuroides SETVI: Setaria viridis • AVEFA: Avena fatua POLCO: Fallopia convolvulus • AMARE: Amaranthus retroflexus ECHCG: Echinochloa crus-galli • LOLRJ: Lolium rigidum STEME: Stellaria media • VERPE: Veronica persica MATIN: Tripleurospermum inodorum • DIGSA: Digitaria sanguinalis ABUTH: Abutylon threophrasti • TRZAS: Triticum aestivum VIOTR: Viola tricolor • BRSNW: Brassica napus ZEAMX: Zea mays • PHBPU: Ipomoea purpurea GLXMA: Glycine max • ORYSA: Oryza sativa HORMU: Hordeum murinum
(§2) Seeds of monocotyledonous and dicotyledonous weeds and crop plants are placed in sandy loam in plastic or organic planting pots, covered with soil and cultivated in a greenhouse under controlled growth conditions. 2 to 3 weeks after sowing, the trial plants are treated at the one-leaf stage. The compounds of the invention, formulated in the form of wettable powders (WP) or as emulsion concentrates (EC), are then sprayed onto the green parts of the plants as aqueous suspension or emulsion with addition of 0.5% additive at a water application rate of 600 l/ha (converted). After the test plants have been kept in the greenhouse under optimum growth conditions for about 3 weeks, the activity of the preparations is rated visually in comparison to untreated controls. For example, 100% activity=the plants have died, 0% activity=like control plants.
(§3) Tables 20a to 38c below show the effects/crop compatibilities of selected compounds of the general formula (I) on various harmful plants at an application rate corresponding to 20 to 320 g/ha, which were obtained by the trial procedure specified above.

ALOMY = assay: as above; format: in vivo, Alopecurus myosuroides; details: visual rating about 3 weeks after treatment
Excerpt: as §1, §2, §3

AMARE = assay: as above; format: in vivo, Amaranthus retroflexus; details: visual rating about 3 weeks after treatment
Excerpt: as §1, §2, §3

AVEFA = assay: as above; format: in vivo, Avena fatua; details: visual rating about 3 weeks after treatment
Excerpt: as §1, §2, §3

DIGSA = assay: as above; format: in vivo, Digitaria sanguinalis; details: visual rating about 3 weeks after treatment
Excerpt: as §1, §2, §3

ECHCG = assay: as above; format: in vivo, Echinochloa crus-galli
Excerpt: as §1, §2, §3

LOLRI = assay: as above; format: in vivo, Lolium rigidum; details: Lolium rigidum, 504 h, 320 g/ha, read-out: Post-emergence effect against LOLRI in %
Excerpt: as §1, §2, §3

MATIN = assay: as above; format: in vivo, Tripleurospermum inodorum
Excerpt: as §1, §2, §3

PHBPU = assay: as above; format: in vivo, Ipomoea purpurea
Excerpt: as §1, §2, §3

POLCO = assay: as above; format: in vivo, Fallopia convolvulus; details: 320 g/ha; for pest or weed control at 320 g/ha: Fallopia convolvulus, 504 h, read-out: Post-emergence effect against POLCO in %
Excerpt: as §1, §2, §3

SETVI = assay: as above; format: in vivo, Setaria viridis
Excerpt: as §1, §2, §3

VERPE = assay: as above; format: in vivo, Veronica persica
Excerpt: as §1, §2, §3

VIOTR = assay: as above; format: in vivo, Viola tricolor
Excerpt: as §1, §2, §3

ZEAMX = assay: Post-emergence herbicidal effect and crop plant compatibility, greenhouse pot test; format: in vivo, Zea mays; details: 20 g/ha, one-leaf stage, rated visually after about 3 weeks vs untreated controls
Excerpt: as §1, §2, §3

KCHSC = assay: Post-emergence herbicidal effect, greenhouse pot test; format: in vivo
Description: as §2, with “plants. Tables 20a to 38c below show the effects/crop compatibilities of selected compounds of the general formula (I) on various harmful plants at an application rate corresponding to 20 to 320 g/ha, which were obtained by the trial procedure specified above.” for “plants.”

[1] = Amaranthus retroflexus, 504 h, read-out: Post-emergence effect against AMARE
[2] = Avena fatua, 504 h, read-out: Post-emergence effect against AVEFA
[3] = Echinochloa crus-galli, 504 h, 80 g/ha, read-out: Post-emergence effect against ECHCG in %
[4] = Tripleurospermum inodorum, 504 h, read-out: Post-emergence effect against MATIN in %
[5] = Ipomoea purpurea, 504 h, 80 g/ha, read-out: Post-emergence effect against PHBPU in %
[6] = Setaria viridis, 504 h, 80 g/ha, read-out: Post-emergence effect against SETVI in %
[7] = Viola tricolor, 504 h, read-out: Post-emergence effect against VIOTR in %
[8] = Viola tricolor, 504 h, 80 g/ha, read-out: Post-emergence effect against VIOTR in %

COC(=O)C(OC)Oc1nn(-c2cc(F)ccc2F)c(-c2cncc(F)c2)c1Br (centres unmarked) [Example I-29]
pest or weed control at 80 g/ha (ABUTH; Abutilon theophrasti, 504 h, 80 g/ha, read-out: Post-emergence effect against ABUTH): 80%
pest or weed control at 320 g/ha (ABUTH; Abutilon theophrasti, 504 h, 320 g/ha, read-out: Post-emergence effect against ABUTH): 90%
pest or weed control at 320 g/ha (ALOMY; Alopecurus myosuroides, 504 h, 320 g/ha, read-out: Post-emergence effect against ALOMY): 90%
pest or weed control at 80 g/ha (AMARE; [1]): 90%
pest or weed control at 320 g/ha (AMARE; Amaranthus retroflexus, 504 h, 320 g/ha, read-out: Post-emergence effect against AMARE): 90%
pest or weed control at 80 g/ha (AVEFA; [2]): 90%
pest or weed control at 320 g/ha (AVEFA; Avena fatua, 504 h, 320 g/ha, read-out: Post-emergence effect against AVEFA): 90%
pest or weed control at 320 g/ha (DIGSA; Digitaria sanguinalis, 504 h, 320 g/ha, read-out: Post-emergence effect against DIGSA): 80%
pest or weed control at 80 g/ha (ECHCG; [3]): 80%
pest or weed control at 320 g/ha (ECHCG; Echinochloa crus-galli, 504 h, 320 g/ha, read-out: Post-emergence effect against ECHCG in %): 90%
pest or weed control at 320 g/ha (LOLRI): 90%
pest or weed control at 20 g/ha (MATIN; [4]): 80%
pest or weed control at 80 g/ha (MATIN; [4]): 90%
pest or weed control at 320 g/ha (MATIN; Tripleurospermum inodorum, 504 h, 320 g/ha, read-out: Post-emergence effect against MATIN in %): 90%
pest or weed control at 20 g/ha (PHBPU; Ipomoea purpurea, 504 h, 20 g/ha, read-out: Post-emergence effect against PHBPU in %): 80%
pest or weed control at 80 g/ha (PHBPU; [5]): 80%
pest or weed control at 320 g/ha (PHBPU; Ipomoea purpurea, 504 h, 320 g/ha, read-out: Post-emergence effect against PHBPU in %): 90%
pest or weed control at 320 g/ha (POLCO): 80%
pest or weed control at 80 g/ha (SETVI; [6]): 90%
pest or weed control at 320 g/ha (SETVI; Setaria viridis, 504 h, 320 g/ha, read-out: Post-emergence effect against SETVI in %): 90%
pest or weed control at 80 g/ha (VERPE; Veronica persica, 504 h, 80 g/ha, read-out: Post-emergence effect against VERPE in %): 90%
pest or weed control at 320 g/ha (VERPE; Veronica persica, 504 h, 320 g/ha, read-out: Post-emergence effect against VERPE in %): 90%
pest or weed control at 20 g/ha (VIOTR; [7]): 80%
pest or weed control at 80 g/ha (VIOTR; [8]): 90%
pest or weed control at 320 g/ha (VIOTR; Viola tricolor, 504 h, 320 g/ha, read-out: Post-emergence effect against VIOTR in %): 90%

CCOC(=O)C(OC)Oc1nn(-c2ccccc2F)c(-c2ccc(F)nc2)c1Br (centres unmarked) [Example I-23]
Post-emergence effect against ALOMY (ALOMY; 320 g/ha): 90%
pest or weed control at 80 g/ha (ALOMY; Alopecurus myosuroides, 504 h, 80 g/ha, read-out: Post-emergence effect against ALOMY): 90%
Post-emergence effect against AMARE (AMARE; 320 g/ha): 90%
pest or weed control at 80 g/ha (AMARE; [1]): 80%
Post-emergence effect against AVEFA (AVEFA; 320 g/ha): 80%
pest or weed control at 80 g/ha (AVEFA; [2]): 80%
Post-emergence effect against DIGSA (DIGSA; 320 g/ha): 90%
pest or weed control at 80 g/ha (DIGSA; Digitaria sanguinalis, 504 h, 80 g/ha, read-out: Post-emergence effect against DIGSA): 90%
Post-emergence effect against ECHCG in % (ECHCG; 320 g/ha): 90%
pest or weed control at 20 g/ha (ECHCG; Echinochloa crus-galli, 504 h, 20 g/ha, visual rating about 3 weeks after treatment, read-out: Post-emergence effect against ECHCG): 80%
pest or weed control at 80 g/ha (ECHCG; [3]): 80%
pest or weed control at 320 g/ha (LOLRI): 90%
Post-emergence effect against MATIN in % (MATIN; 320 g/ha): 90%
pest or weed control at 20 g/ha (MATIN; [4]): 80%
pest or weed control at 80 g/ha (MATIN; [4]): 80%
Post-emergence effect against PHBPU in % (PHBPU; 320 g/ha): 90%
pest or weed control at 80 g/ha (PHBPU; [5]): 80%
pest or weed control at 320 g/ha (POLCO): 80%
Post-emergence effect against SETVI in % (SETVI; 320 g/ha): 90%
pest or weed control at 80 g/ha (SETVI; [6]): 80%
Post-emergence effect against VERPE in % (VERPE; 80 g/ha): 90%
Post-emergence effect against VERPE in % (VERPE; 320 g/ha): 90%
pest or weed control at 20 g/ha (VERPE; Veronica persica, 504 h, 20 g/ha, read-out: Post-emergence effect against VERPE in %): 80%
Post-emergence effect against VIOTR in % (VIOTR; 320 g/ha): 80%
pest or weed control at 20 g/ha (VIOTR; [7]): 80%
pest or weed control at 80 g/ha (VIOTR; [8]): 80%

COC(=O)CCOC(=O)C(OC)Oc1nn(-c2ncccc2F)c(-c2ccc(F)nc2)c1C1CC1 (single isomer, unassigned) [Example I-80]
Post-emergence effect at 20 g/ha against ZEAMX in % (ZEAMX): 20%
Post-emergence effect against ABUTH (ABUTH; 80 g/ha): 80%
Post-emergence effect against ABUTH (ABUTH; 320 g/ha): 80%
Post-emergence effect against ALOMY (ALOMY; 320 g/ha): 90%
Post-emergence effect against AMARE (AMARE; 320 g/ha): 80%
Post-emergence effect against AVEFA (AVEFA; 320 g/ha): 90%
Post-emergence effect against DIGSA (DIGSA; 80 g/ha): 80%
Post-emergence effect against DIGSA (DIGSA; 320 g/ha): 90%
Post-emergence effect against ECHCG (ECHCG; 20 g/ha, visual rating about 3 weeks after treatment): 90%
Post-emergence effect against ECHCG in % (ECHCG; 80 g/ha): 90%
Post-emergence effect against ECHCG in % (ECHCG; 320 g/ha): 90%
Post-emergence effect against PHBPU in % (PHBPU; 80 g/ha): 90%
Post-emergence effect against PHBPU in % (PHBPU; 320 g/ha): 90%
Post-emergence effect against POLCO in % (POLCO): 90%
Post-emergence effect against SETVI in % (SETVI; 80 g/ha): 90%
Post-emergence effect against SETVI in % (SETVI; 320 g/ha): 90%
Post-emergence effect against VERPE in % (VERPE; 80 g/ha): 80%
Post-emergence effect against VERPE in % (VERPE; 320 g/ha): 90%
Post-emergence effect against VIOTR in % (VIOTR; 80 g/ha): 80%
Post-emergence effect against VIOTR in % (VIOTR; 320 g/ha): 90%
Post-emergence effect against KCHSC in % (KCHSC; 20 g/ha): 90%
Post-emergence effect against KCHSC in % (KCHSC; 80 g/ha): 90%
Post-emergence effect against KCHSC in % (KCHSC; 320 g/ha): 90%
